The text below walks through data of US12686665B2, “Bicyclic fused ring derivative or salt thereof and pharmaceutical composition comprising same” (YUHAN CORPORATION, priority 2021, dated 2026).

Broadly, the IC50 is the concentration at which inhibition is half-maximal.

Where a name gives a salt, the structure may show the parent alone.

In this assay the target is T1, recombinant human Lysyl Oxidase-Like 2 (LOXL2) (Homo sapiens, UniProt Q9Y4K0).
T1 construct: purchased R&D systems
T1 sequence (Q9Y4K0 26-774): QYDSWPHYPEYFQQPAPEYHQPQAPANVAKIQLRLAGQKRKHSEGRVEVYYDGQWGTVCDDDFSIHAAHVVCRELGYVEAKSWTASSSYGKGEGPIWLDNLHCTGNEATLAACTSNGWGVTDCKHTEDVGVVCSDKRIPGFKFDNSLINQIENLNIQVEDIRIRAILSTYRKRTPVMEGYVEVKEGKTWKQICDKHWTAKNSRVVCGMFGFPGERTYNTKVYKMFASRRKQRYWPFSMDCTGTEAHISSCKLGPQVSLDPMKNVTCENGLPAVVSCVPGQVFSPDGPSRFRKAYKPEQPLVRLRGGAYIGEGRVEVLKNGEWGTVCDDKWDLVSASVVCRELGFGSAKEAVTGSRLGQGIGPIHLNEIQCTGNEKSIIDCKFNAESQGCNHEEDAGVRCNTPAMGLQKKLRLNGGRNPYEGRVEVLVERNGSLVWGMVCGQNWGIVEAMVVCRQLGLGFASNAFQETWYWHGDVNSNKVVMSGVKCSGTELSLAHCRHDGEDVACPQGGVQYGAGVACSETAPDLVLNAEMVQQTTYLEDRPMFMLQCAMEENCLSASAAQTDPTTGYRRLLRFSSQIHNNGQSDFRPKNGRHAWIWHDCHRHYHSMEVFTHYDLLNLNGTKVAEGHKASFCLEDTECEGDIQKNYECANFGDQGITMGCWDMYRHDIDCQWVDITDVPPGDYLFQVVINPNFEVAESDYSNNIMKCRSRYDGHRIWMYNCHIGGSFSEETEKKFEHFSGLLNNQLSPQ
The assay can be described thus: Amplex Red HRP-coupled amine oxidase assay, recombinant human LOXL2. Type of assay: biochemical. The conditions noted are these: 60 min incubation with enzyme at 37° C., putrescine substrate, read-out: Inhibitory activity (IC50, nM) human LOXL2. As to the method:
The activities of the compounds according to the present invention against recombinant human Lysyl Oxidase-Like 2 (recombinant human LOXL2, R&D systems) were evaluated by measuring the levels of hydrogen peroxide in the HRP (horseradish peroxidase) coupled reactions, with the Amplex Red Hydrogen Peroxide Assay Kit (Molecular Probes, Invitrogen, USA). The tests were carried out at 37° C., and putrescine was used as a substrate. In the HRP coupling reaction, the oxidation of 10-acetyl-3,7-dihydroxyphenoxazine (Amplex Red reagent) by hydrogen peroxide generates a fluorescent product, i.e., resorufin. Briefly, the test compounds were dissolved in dimethyl sulfoxide (DMSO) at a concentration of 20 mM. Dose-response measurements were carried out by serial dilutions in DMSO to generate a six-point curve. The upper concentration was adjusted according to the potency of the compound, and then diluted with the reaction buffer to obtain a final DMSO concentration of 1%. Purified human LOXL2 in 50 mM sodium phosphate buffer (pH7.4) was added to each well of a 96 well black plate. The test compounds dissolved in DMSO were incubated with the human LOXL2 enzyme at 37° C. for 60 minutes. After the incubation for 60 minutes, a reaction mixture containing 400 μM Amplex Red reagent, 30 mM putrescine, and 2 U/mL HRP in 50 mM sodium phosphate buffer (pH 7.4) was added to each well. Fluorescence was measured with a microplate reader (Flexstation3, Molecular Devices), under the conditions of excitation at 530 nm and emission at 590 nm, 1 hour after the addition of the mixture. Inhibition by each compound was measured as % reduction in signal, compared to the control without an inhibitor (diluted DMSO only). The data were fixed to a four-variable logistic model, and […] values were calculated using the GraphPad Prism program.
On to `CONC(=O)c1cc(-c2cc(S(=O)(=O)NC3CC3)ccc2OC)c2nnn(C/C(F)=C/CN)c2c1` [Example 136, (Z)-1-(4-amino-2-fluorobut-2-en-1-yl)-4-(5-(N-cyclopropylsulfamoyl)-2-methoxyphenyl)-N-methoxy-1H-benzo[d][1,2,3]triazol-6-carboxamide hydrochloride], for which the 50% inhibitory concentration (IC50) was determined as 6.4 nM.
To `COC(=O)c1cc(-c2cc(S(=O)(=O)C(F)(F)F)ccc2C)c2nnn(C/C(F)=C/CN)c2c1` [Example 128, methyl (Z)-1-(4-amino-2-fluorobut-2-en-1-yl)-4-(2-methyl-5-((trifluoromethyl)sulfonyl)phenyl)-1H-benzo[d][1,2,3]triazol-6-carboxylate hydrochloride] belongs 94.2 nM.
Regarding `N#Cc1cc(-c2cncc(F)c2)c2ncn(C/C(F)=C/CN)c2c1` [Example 188, (Z)-1-(4-amino-2-fluorobut-2-en-1-yl)-4-(5-fluoropyridin-3-yl)-1H-benzo[d]imidazol-6-carbonitrile hydrochloride], the half-maximal inhibitory concentration (IC50) came out at 131 nM.
Next, `CC(C)n1nccc1-c1cc(C(F)(F)F)cc2c1ncn2C/C(F)=C/CN` [Example 178, (Z)-3-fluoro-4-(4-(1-isopropyl-1H-pyrazol-5-yl)-6-(trifluoromethyl)-1H-benzo[d]imidazol-1-yl)but-2-en-1-amine hydrochloride]: 463 nM; `CONC(=O)c1cc(-c2ccc(OC)c(S(=O)(=O)N(C)C)c2)c2nnn(C/C(F)=C/CN)c2c1` [Example 132, (Z)-1-(4-amino-2-fluorobut-2-en-1-yl)-4-(3-(N,N-dimethylsulfamoyl)-4-methoxyphenyl)-N-methoxy-1H-benzo[d][1,2,3]triazol-6-carboxamide hydrochloride]: 18.7 nM; `N#Cc1cc(-c2cncnc2)c2ncn(C/C(F)=C/CN)c2c1` [Example 190, (Z)-1-(4-amino-2-fluorobut-2-en-1-yl)-4-(pyrimidin-5-yl)-1H-benzo[d]imidazol-6-carbonitrile hydrochloride]: 117 nM.
As for `CNS(=O)(=O)c1cccc(-c2cc(C(=O)OC)cc3c2nnn3C/C(F)=C/CN)c1` [Example 123, methyl (Z)-1-(4-amino-2-fluorobut-2-en-1-yl)-4-(3-(N-methylsulfamoyl)phenyl)-1H-benzo[d][1,2,3]triazol-6-carboxylate hydrochloride], the IC50 turned out to be 12.6 nM.
Consider `NC/C=C(\F)Cn1nnc2c(-c3cc(CO)ccc3F)cc(C(F)(F)F)cc21` [Example 198, (Z)-(3-(1-(4-amino-2-fluorobut-2-en-1-yl)-6-(trifluoromethyl)-1H-benzo[d][1,2,3]triazol-4-yl)-4-fluorophenyl)methanol hydrochloride], for which the 50% inhibitory concentration (IC50) was 226 nM.
Turning to `NC/C=C(\F)Cn1nnc2c(-c3cccc(S(=O)(=O)NC4CC4)c3)cccc21` [Example 110, (Z)-3-(1-(4-amino-2-fluorobut-2-en-1-yl)-1H-benzo[d][1,2,3]triazol-4-yl)-N-cyclopropylbenzenesulfonamide hydrochloride], the IC50 is 60 nM.
To `COc1ccc(S(=O)(=O)N2CCN(C)CC2)cc1-c1cccc2c1nnn2C/C(F)=C/CN` [Example 113, (Z)-3-fluoro-4-(4-(2-methoxy-5-((4-methylpiperazin-1-yl)sulfonyl)phenyl)-1H-benzo[d][1,2,3]triazol-1-yl)but-2-en-1-amine hydrochloride] belongs 65 nM.
Next, `NC/C=C(\F)Cn1nnc2c(-c3cnn(CCO)c3)cc(C(F)(F)F)cc21` [Example 205, (Z)-2-(4-(1-(4-amino-2-fluorobut-2-en-1-yl)-6-(trifluoromethyl)-1H-benzo[d][1,2,3]triazol-4-yl]-1H-pyrazol-1-yl)ethan-1-ol hydrochloride]: 182 nM.
To `N#Cc1cc(-c2cc(CO)ccc2F)c2ncn(C/C(F)=C/CN)c2c1` [Example 185, (Z)-1-(4-amino-2-fluorobut-2-en-1-yl)-4-(2-fluoro-5-(hydroxymethyl)phenyl)-1H-benzo[d]imidazol-6-carbonitrile hydrochloride] belongs 105 nM.
`COC(=O)c1cc(-c2cccc(S(C)(=O)=O)c2)c2nnn(C/C(F)=C/CN)c2c1` [Example 118, methyl (Z)-1-(4-amino-2-fluorobut-2-en-1-yl)-4-(3-(methylsulfonyl)phenyl)-1H-benzo[d][1,2,3]triazol-6-carboxylate hydrochloride]: the 50% inhibitory concentration (IC50) is 34 nM.
In the case of `Cn1nc(C(F)(F)F)cc1-c1cc(C(F)(F)F)cc2c1ncn2C/C(F)=C/CN` [Example 179, (Z)-3-fluoro-4-(4-[1-methyl-3-(trifluoromethyl)-1H-pyrazol-5-yl]-6-(trifluoromethyl)-1H-benzo[d]imidazol-1-yl)but-2-en-1-amine hydrochloride], the concentration for half-maximal inhibition (IC50) worked out at 506 nM.
Next, `CCN(CC)S(=O)(=O)c1cccc(-c2cc(C(=O)OC)cc3c2ncn3C/C(F)=C/CN)c1` [Example 37, methyl (Z)-1-(4-amino-2-fluorobut-2-en-1-yl)-4-(3-(N,N-diethylsulfamoyl)phenyl)-1H-benzo[d]imidazol-6-carboxylate hydrochloride]: 70.3 nM; `COC(=O)c1cc(-c2cccc(S(=O)(=O)N3CCC(F)(F)C3)c2)c2nnn(C/C(F)=C/CN)c2c1` [Example 115, methyl (Z)-1-(4-amino-2-fluorobut-2-en-1-yl)-4-(3-((3,3-difluoropyrrolidin-1-yl)sulfonyl)phenyl)-1H-benzo[d][1,2,3]triazol-6-carboxylate hydrochloride]: 58.7 nM; `COC(=O)c1cc(-c2cccc(S(=O)(=O)N3CCCCC3)c2)c2ncn(C/C(F)=C/CN)c2c1` [Example 33, methyl (Z)-1-(4-amino-2-fluorobut-2-en-1-yl)-4-(3-(piperidin-1-ylsulfonyl)phenyl)-1H-benzo[d]imidazol-6-carboxylate hydrochloride]: 55.6 nM.
Next, `CCN(CC)S(=O)(=O)c1ccc(OC)c(-c2cc(C(=O)OC)cc3c2ncn3C/C(F)=C/CN)c1` [Example 26, methyl (Z)-1-(4-amino-2-fluorobut-2-en-1-yl)-4-(5-(N,N-diethylsulfamoyl)-2-methoxyphenyl)-1H-benzo[d]imidazol-6-carboxylate hydrochloride]: 62.5 nM; `CCN(CC)S(=O)(=O)c1ccc(OC)c(-c2cc(C(=O)N(C)OC)cc3c2nnn3C/C(F)=C/CN)c1` [Example 138, (Z)-1-(4-amino-2-fluorobut-2-en-1-yl)-4-(5-(N,N-diethylsulfamoyl)-2-methoxyphenyl)-N-m ethoxy-N-methyl-1H-benzo[d][1,2,3]triazol-6-carboxamide hydrochloride]: 54.3 nM.
To `CS(=O)(=O)c1cccc(-c2cccc3c2nnn3C/C(F)=C/CN)c1` [Example 106, (Z)-3-fluoro-4-(4-(3-(methylsulfonyl)phenyl)-1H-benzo[d][1,2,3]triazol-1-yl)but-2-en-1-amine hydrochloride] belongs 94 nM; to `COC(=O)c1cc(-c2cccc(S(=O)(=O)NCc3ccc(OC)cc3)c2)c2ncn(C/C(F)=C/CN)c2c1` [Example 32, methyl (Z)-1-(4-amino-2-fluorobut-2-en-1-yl)-4-(3-(N-(4-methoxybenzyl)sulfamoyl)phenyl)-1H-benzo[d]imidazol-6-carboxylate hydrochloride], 60.1 nM.
